pIC50: −log10 of the molar value.
Tested on: MCF7 complex spheroid growth, % test/control
Test: Anticancer human tumor MCF7 cell line growth inhibition [Asc];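 further: spheroids exposed to compounds for 7 days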;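 on viability, T/C: 100% = DMSO vehicle control wells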
Details: for pIC50: curve of first compound; for viability, T/C: stronger effect = lower value; active means viability on the fitted dose curve at most 10% of control; inactive means the rest
How it was run: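 Spheroid model: tumor line + HUVEC + hMSC. Single agents and combinations; top conc. at/near clinical Cmax (10 microM if undetermined), half-log dilutions. DMSO stocks at 800-fold test concentration.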

[1] = second compound 0.0316 µM, first compound 0.00316 µM
[2] = second compound 0.0316 µM, first compound 0.01 µM
[3] = second compound 0.0316 µM, first compound 0.0316 µM
[4] = second compound 0.0316 µM, first compound 0.1 µM
[5] = second compound 0.0316 µM, first compound 0.316 µM
[6] = second compound 0.0316 µM, first compound 1 µM
[7] = second compound 0.1 µM, first compound 0.00316 µM
[8] = second compound 0.1 µM, first compound 0.01 µM
[9] = second compound 0.1 µM, first compound 0.0316 µM
[10] = second compound 0.1 µM, first compound 0.1 µM
[11] = second compound 0.1 µM, first compound 0.316 µM
[12] = second compound 0.1 µM, first compound 1 µM
[13] = second compound 0.316 µM, first compound 0.00316 µM
[14] = second compound 0.316 µM, first compound 0.01 µM
[15] = second compound 0.316 µM, first compound 0.0316 µM
[16] = second compound 0.316 µM, first compound 0.1 µM
[17] = second compound 0.316 µM, first compound 0.316 µM
[18] = second compound 0.316 µM, first compound 1 µM
[19] = second compound 1 µM, first compound 0.00316 µM
[20] = second compound 1 µM, first compound 0.01 µM
[21] = second compound 1 µM, first compound 0.0316 µM
[22] = second compound 1 µM, first compound 0.1 µM
[23] = second compound 1 µM, first compound 0.316 µM
[24] = second compound 1 µM, first compound 1 µM
[25] = second compound 3.16 µM, first compound 0.00316 µM
[26] = second compound 3.16 µM, first compound 0.01 µM
[27] = second compound 3.16 µM, first compound 0.0316 µM
[28] = second compound 3.16 µM, first compound 0.1 µM
[29] = second compound 3.16 µM, first compound 0.316 µM
[30] = second compound 3.16 µM, first compound 1 µM
[31] = second compound 10 µM, first compound 0.00316 µM
[32] = second compound 10 µM, first compound 0.01 µM
[33] = second compound 10 µM, first compound 0.0316 µM
[34] = second compound 10 µM, first compound 0.1 µM
[35] = second compound 10 µM, first compound 0.316 µM
[36] = second compound 10 µM, first compound 1 µM

CCN1CCN(Cc2ccc(Nc3ncc(F)c(-c4cc(F)c5nc(C)n(C(C)C)c5c4)n3)nc2)CC1 + Cc1c(S(C)(=O)=O)c(-c2cc(F)cc(N3CCN(c4ccc(NS(=O)(=O)c5ccc(NC(CCN6CCC(C(=O)OCCCP(=O)(O)O)CC6)CSc6ccccc6)c(S(=O)(=O)C(F)(F)F)c5)cc4)CC3)c2)c(-c2ccc(Cl)cc2)n1C(C)C
< 6.00: pIC50 (second compound 0.0316 µM) | pIC50 (second compound 0.1 µM) | pIC50 (second compound 0.316 µM) | pIC50 (second compound 1 µM) | pIC50 (second compound 3.16 µM) | pIC50 (second compound 10 µM)
inactive: viability, T/C [1] 101% | viability, T/C [2] 96.7% | viability, T/C [3] 106% | viability, T/C [4] 95.6% | viability, T/C [5] 91.4% | viability, T/C [6] 72.8% | viability, T/C [7] 92.8% | viability, T/C [8] 86% | viability, T/C [9] 86.3% | viability, T/C [10] 85.2% | viability, T/C [11] 101% | viability, T/C [12] 87.3% | viability, T/C [13] 100% | viability, T/C [14] 94.2% | viability, T/C [15] 98.8% | viability, T/C [16] 95% | viability, T/C [17] 94.6% | viability, T/C [18] 69.1% | viability, T/C [19] 91.6% | viability, T/C [20] 98.9% | viability, T/C [21] 79.5% | viability, T/C [22] 88.4% | viability, T/C [23] 103% | viability, T/C [24] 69.2% | viability, T/C [25] 90.2% | viability, T/C [26] 85.7% | viability, T/C [27] 92.8% | viability, T/C [28] 88.5% | viability, T/C [29] 92.1% | viability, T/C [30] 73.1% | viability, T/C [31] 136% | viability, T/C [32] 124% | viability, T/C [33] 182% | viability, T/C [34] 134% | viability, T/C [35] 114% | viability, T/C [36] 61.6%

Cn1ncnc1[C@H]1c2n[nH]c(=O)c3cc(F)cc(c23)N[C@@H]1c1ccc(F)cc1 + Cc1c(S(C)(=O)=O)c(-c2cc(F)cc(N3CCN(c4ccc(NS(=O)(=O)c5ccc(NC(CCN6CCC(C(=O)OCCCP(=O)(O)O)CC6)CSc6ccccc6)c(S(=O)(=O)C(F)(F)F)c5)cc4)CC3)c2)c(-c2ccc(Cl)cc2)n1C(C)C
7.76: pIC50 (second compound 10 µM)
7.49: pIC50 (second compound 0.316 µM)
7.40: pIC50 (second compound 3.16 µM)
inactive: viability, T/C (second compound 0.0316 µM, first compound 0.000316 µM) 116% | viability, T/C (second compound 0.0316 µM, first compound 0.001 µM) 113% | viability, T/C [1] 74.6% | viability, T/C [2] 59.4% | viability, T/C [3] 50.7% | viability, T/C [4] 39.7% | viability, T/C (second compound 0.1 µM, first compound 0.000316 µM) 100% | viability, T/C (second compound 0.1 µM, first compound 0.001 µM) 89.8% | viability, T/C [7] 78.9% | viability, T/C [8] 57.7% | viability, T/C [9] 50.5% | viability, T/C [10] 49% | viability, T/C (second compound 0.316 µM, first compound 0.000316 µM) 103% | viability, T/C (second compound 0.316 µM, first compound 0.001 µM) 75% | viability, T/C [13] 80.9% | viability, T/C [14] 54.2% | viability, T/C [15] 50.9% | viability, T/C [16] 42.9% | viability, T/C (second compound 1 µM, first compound 0.000316 µM) 106% | viability, T/C (second compound 1 µM, first compound 0.001 µM) 81.7% | viability, T/C [19] 95.7% | viability, T/C [20] 66.7% | viability, T/C [21] 44.8% | viability, T/C [22] 39.3% | viability, T/C (second compound 3.16 µM, first compound 0.000316 µM) 110% | viability, T/C (second compound 3.16 µM, first compound 0.001 µM) 86.8% | viability, T/C [25] 89.4% | viability, T/C [26] 57.3% | viability, T/C [27] 50.6% | viability, T/C [28] 46.5% | viability, T/C (second compound 10 µM, first compound 0.000316 µM) 85.3% | viability, T/C (second compound 10 µM, first compound 0.001 µM) 83.6% | viability, T/C [31] 74.6% | viability, T/C [32] 51.7% | viability, T/C [33] 49.9% | viability, T/C [34] 36.7%
7.35: pIC50 (second compound 0.1 µM)
7.65: pIC50 (second compound 1 µM)
7.69: pIC50 (second compound 0.0316 µM)

O=C(c1cc(Cc2n[nH]c(=O)c3ccccc23)ccc1F)N1CCN(C(=O)C2CC2)CC1 + Cc1c(S(C)(=O)=O)c(-c2cc(F)cc(N3CCN(c4ccc(NS(=O)(=O)c5ccc(NC(CCN6CCC(C(=O)OCCCP(=O)(O)O)CC6)CSc6ccccc6)c(S(=O)(=O)C(F)(F)F)c5)cc4)CC3)c2)c(-c2ccc(Cl)cc2)n1C(C)C
5.07: pIC50 (second compound 10 µM)
5.10: pIC50 (second compound 1 µM)
< 5.00: pIC50 (second compound 0.0316 µM) | pIC50 (second compound 0.1 µM) | pIC50 (second compound 0.316 µM)
5.15: pIC50 (second compound 3.16 µM)
inactive: viability, T/C [3] 95.8% | viability, T/C [4] 99.9% | viability, T/C [5] 118% | viability, T/C [6] 95.9% | viability, T/C (second compound 0.0316 µM, first compound 3.16 µM) 80.5% | viability, T/C (second compound 0.0316 µM, first compound 10 µM) 54.3% | viability, T/C [9] 117% | viability, T/C [10] 99.8% | viability, T/C [11] 87% | viability, T/C [12] 99.4% | viability, T/C (second compound 0.1 µM, first compound 3.16 µM) 84.5% | viability, T/C (second compound 0.1 µM, first compound 10 µM) 57.6% | viability, T/C [15] 117% | viability, T/C [16] 109% | viability, T/C [17] 101% | viability, T/C [18] 93.7% | viability, T/C (second compound 0.316 µM, first compound 3.16 µM) 72.8% | viability, T/C (second compound 0.316 µM, first compound 10 µM) 52.5% | viability, T/C [21] 119% | viability, T/C [22] 107% | viability, T/C [23] 91.9% | viability, T/C [24] 105% | viability, T/C (second compound 1 µM, first compound 3.16 µM) 88.9% | viability, T/C (second compound 1 µM, first compound 10 µM) 40.4% | viability, T/C [27] 108% | viability, T/C [28] 72.5% | viability, T/C [29] 79.1% | viability, T/C [30] 93.6% | viability, T/C (second compound 3.16 µM, first compound 3.16 µM) 68.2% | viability, T/C (second compound 3.16 µM, first compound 10 µM) 42.4% | viability, T/C [33] 82.6% | viability, T/C [34] 84.4% | viability, T/C [35] 74.6% | viability, T/C [36] 86.9% | viability, T/C (second compound 10 µM, first compound 3.16 µM) 76.3% | viability, T/C (second compound 10 µM, first compound 10 µM) 45.4%

O=C(c1ccc(F)c(F)c1Nc1ccc(I)cc1F)N1CC(O)([C@@H]2CCCCN2)C1 + Cc1c(S(C)(=O)=O)c(-c2cc(F)cc(N3CCN(c4ccc(NS(=O)(=O)c5ccc(NC(CCN6CCC(C(=O)OCCCP(=O)(O)O)CC6)CSc6ccccc6)c(S(=O)(=O)C(F)(F)F)c5)cc4)CC3)c2)c(-c2ccc(Cl)cc2)n1C(C)C
inactive: viability, T/C [1] 101% | viability, T/C [2] 97.2% | viability, T/C [3] 88.6% | viability, T/C [4] 83.2% | viability, T/C [5] 95.2% | viability, T/C [6] 112% | viability, T/C [7] 101% | viability, T/C [8] 89.7% | viability, T/C [9] 93.6% | viability, T/C [10] 88.8% | viability, T/C [11] 94.8% | viability, T/C [12] 90% | viability, T/C [13] 90.7% | viability, T/C [14] 88.2% | viability, T/C [15] 81% | viability, T/C [16] 93.1% | viability, T/C [17] 96.4% | viability, T/C [18] 84.2% | viability, T/C [19] 84.8% | viability, T/C [20] 78% | viability, T/C [21] 82.9% | viability, T/C [22] 94.5% | viability, T/C [23] 109% | viability, T/C [24] 74.3% | viability, T/C [25] 80.9% | viability, T/C [26] 86.5% | viability, T/C [27] 80.1% | viability, T/C [28] 98.5% | viability, T/C [29] 82.6% | viability, T/C [30] 81.8% | viability, T/C [31] 159% | viability, T/C [32] 164% | viability, T/C [33] 204% | viability, T/C [34] 182% | viability, T/C [35] 114% | viability, T/C [36] 90.8%
< 6.00: pIC50 (second compound 0.0316 µM) | pIC50 (second compound 0.1 µM) | pIC50 (second compound 0.316 µM) | pIC50 (second compound 1 µM) | pIC50 (second compound 3.16 µM) | pIC50 (second compound 10 µM)
